Data from patent publication US20250072419A1, “SYSTEMS AND METHODS FOR APPLICATION OF ACTIVE INGREDIENTS TO CANNABIS” (Hazel Technologies, Inc., priority 2020, published 2025).
“And” between values parts separate entries of the source, which are not always exact repeats. Equal values may be shown once.

Columns and labels:
Format in all cases: in vivo
[1] = test system: female Cannabis plants, variety 'B' (Jack's Girl, 50% sativa and 50% indica); assay: development of male sex organs on female plants after 1-MCP fumigation, variety B; conditions: for Flower clusters displaying male organs 30 days after treatment 3 (%): 36.3 ppm 1-MCP
Description: (§1) To examine the effect of 1-MCP exposure, six genetic replicates of a first variety of Cannabis (variety ‘A’) and six genetic replicates of a second variety of Cannabis (variety ‘B’) were grown under greenhouse conditions for a period of four weeks, then transferred to growth chamber conditions with a 12 hour photoperiod for three weeks to induce flower formation. Variety A was from a hybrid strain of 15% sativa and 85% indica bred by BC Bud Depot under the strain name Shiatsu. Variety B was from a hybrid strain of 50% sativa and 50% indica bred by Spectrum under the strain name Jack's Girl. Greenhouse conditions and growth chamber conditions are detailed in Table 1. Next, three of the genetic replicates of each variety were treated with 1-MCP via fumigation in a 295 cubic foot growth chamber for 18 hours using a source of the 1-MCP. The source of the 1-MCP was 250 g of a composition comprising 1-MCP in an amount of 2 wt % loaded in activated carbon as a porous adsorbent material. The treatment was initially activated via the addition of 0.07 gallons of liquid water to the composition, which accelerated release of 1-MCP and established an atmosphere within the growth chamber of 36.3 ppm 1-MCP. Twelve days later, the 18-hour 1-MCP treatment was repeated, and the treatment was repeated again the next day. Control groups of each variety were watered and exposed to identical conditions except that they were never fumigated with 1-MCP.
Stamens were not observed in variety ‘A’ genetic replicates or in either control group.

[2] = test system: female Cannabis plants, variety 'A' (Shiatsu, 15% sativa and 85% indica); assay: development of male sex organs / phenotype on female plants after 1-MCP fumigation, variety A
Description: as §1, with “Control groups of each variety were watered and exposed to identical conditions except that they were never fumigated with 1-MCP.” left out

[3] = test system: Cannabis variety A; assay: total biomass and flower biomass of dried plants after 1-MCP treatment, variety A
Description: as §1
(§2) To examine the effect of 1-MCP exposure, the genetic replicates from variety A and variety B of Example 1 were measured (i) after plants were dried and (ii) after plants were dried and trimmed, reflecting flower biomass. Measurement (i) provided the total biomass of each genetic replicate, while measurement (ii) provided the mass of consumer-ready product. The drying of the plants was performed by placing the plants into a drying chamber (90° F., 16% relative humidity) for 72 hours prior to measurement and/or trimming.

[4] = test system: Cannabis variety B; assay: total biomass and flower biomass of dried plants after 1-MCP treatment, variety B
Description: as §1, §2

[5] = test system: Cannabis variety A; assay: cannabinoid profile of floral tissue by HPLC after 1-MCP treatment, variety A
Description: as §1
Cannabinoids concentrations were measured in the genetic replicates from variety A and variety B of Example 1 at three time-points: T1—two days before the first treatment with 1-MCP; T2—one week after the first treatment with 1-MCP; and T3—after all 1-MCP treatments, once the genetic replicates had reached full plant maturity. At each timepoint, three samples of floral tissue were collected from each genetic replicate and frozen overnight. To prepare samples of floral tissue for high performance liquid chromatography (HPLC) analysis, frozen floral tissue was ground, extracted in HPLC-grade methanol, and filtered. HPLC was performed on the filtered methanol, providing a cannabinoid profile for each sample of floral tissue.
Analysis of Variance (ANOVA) was performed to evaluate the effect of 1-MCP on cannabinoid content under each set of experimental conditions.

[6] = test system: Cannabis variety B; assay: cannabinoid profile of floral tissue by HPLC after 1-MCP treatment, variety B
Description: as §1, with “The treatment was initially activated via the addition of 0.07 gallons of liquid water to the composition, which accelerated release of 1-MCP and established an atmosphere within the growth chamber of 36.3 ppm 1-MCP. Twelve days later, the 18-hour 1-MCP treatment was repeated, and the treatment was repeated again the next day. Control groups of each variety were watered and exposed to identical conditions except that they were never fumigated with 1-MCP.” left out
Cannabinoids concentrations were measured in the genetic replicates from variety A and variety B of Example 1 at three time-points: T1—two days before the first treatment with 1-MCP; T2—one week after the first treatment with 1-MCP; and T3—after all 1-MCP treatments, once the genetic replicates had reached full plant maturity. […]

[7] = Treatment, single specimens, dried and trimmed plants
[8] = Treatment, single specimens, dried plants

Compound: CC1=CC1 [1-MCP, 1-methylcyclopropene]
- stamen growth on female floral tissue ([1]; 15 days after final fumigation (FIG. 5)): presence of multiple stamens
- stamen growth on female floral tissue ([1]; 19 days after final fumigation (FIG. 6)): multiple stamens
- Flower clusters displaying male organs 30 days after treatment 3 (%) ([1]; Plant 1, three 18 h fumigations): 97%
- Flower clusters displaying male organs 30 days after treatment 3 (%) ([1]; Plant 2, three 18 h fumigations): 100%
- Flower clusters displaying male organs 30 days after treatment 3 (%) ([1]; Plant 3, three 18 h fumigations): 86%
- stamen growth on female floral tissue ([1]; five days after final fumigation (FIG. 4)): further development of stamen growth
- flower clusters displaying staminate growth ([1]; thirty days after the final 1-MCP treatment): 80-100%
- stamen growth on female floral tissue ([1]; three days after the final fumigation (FIG. 3)): stamens were observed
- staminate growth ([2]; variety A genetic replicates treated with 1-MCP): Staminate growth was not observed
- plants observed to have purple leaves ([2]; variety A, three 1-MCP-treated plants (FIG. 7), none of three controls): two of three
- deleterious effect on the biomass [3]: did not have a deleterious effect
- increase in flower biomass over the control group [3]: ~10%
- increase in total biomass over the control group [3]: ~22%
- Flower Biomass Group Mean ([3]; Treatment, mean of 3 specimens, control mean 87.6): 95.3 g
- Total Biomass Group Mean ([3]; Treatment, mean of 3 specimens, control mean 105): 118.3 g
- Flower Biomass [3, 7]: 98 g and 90 g
- Total Biomass [3, 8]: 130 g and 120 g and 105 g
- decrease in flower biomass versus control [4]: ~2%
- decrease in total biomass versus control [4]: ~2%
- deleterious effect on the biomass [4]: did not have a deleterious effect
- Flower Biomass Group Mean ([4]; Treatment, mean of 3 specimens, control mean 102.3): 100.3 g
- Total Biomass Group Mean ([4]; Treatment, mean of 3 specimens, control mean 118.3): 115.6 g
- Flower Biomass [4, 7]: 95 g and 106 g and 100 g
- Total Biomass [4, 8]: 111 g and 121 g and 115 g
- deleterious effects on the overall profile of cannabinoids ([5]; variety A): no deleterious effects
- THCA, THCVA and CBGA concentrations, treated versus control (ANOVA) ([5]; variety A (FIGS. 9A-C)): A few statistically significant differences
- total cannabinoid concentration, treated versus control (ANOVA) ([5]; variety A, mature plants (T3) (FIG. 8)): no statistically significant difference
- total cannabinoid concentration, treated versus control (ANOVA) ([5]; variety A, timepoint T2, one week after the first treatment (FIG. 8)): statistically significant difference
- deleterious effects on the overall profile of cannabinoids [6]: no deleterious effects
- total cannabinoid concentration, treated versus control (ANOVA) ([6]; mature plants (T3) (FIG. 8)): no statistically significant difference
